In ChEMBL document CHEMBL1201862, “PubChem BioAssay data set” (2004):
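In this assay, cells in 96-well plates receive the compound at five concentrations for 48 hours. Endpoints are linearly interpolated between the surrounding concentrations. At the GI50, growth is halved.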 Activity calls are given as the source filed them. No stated cut-off is given here; in the data, active = GI50 up to about 1.1 µM and inactive = higher.

Assays:
Experiment in all cases: inhibition of tumour cell growth, NCI panel, 48 h
NCI-H23 = test system: NCI-H23
SNB-19 = test system: SNB-19
NCI-H226 = test system: NCI-H226
OVCAR-4 = test system: OVCAR-4
LXFL 529 = test system: LXFL 529
SK-OV-3 = test system: SK-OV-3
SNB-75 = test system: SNB-75
A549 = test system: A549
786-0 = test system: 786-0
UACC-257 = test system: UACC-257
RXF 393 = test system: RXF 393
SK-MEL-5 = test system: SK-MEL-5
M14 = test system: M14
M19-MEL = test system: M19-MEL
TK-10 = test system: TK-10
HCT-15 = test system: HCT-15
RPMI-8226 = test system: RPMI-8226
UO-31 = test system: UO-31
DLD-1 = test system: DLD-1
SK-MEL-2 = test system: SK-MEL-2
MOLT-4 = test system: MOLT-4
EKVX = test system: EKVX
IGROV-1 = test system: IGROV-1
SF-539 = test system: SF-539
HCC 2998 = test system: HCC 2998
SK-MEL-28 = test system: SK-MEL-28
HCT-116 = test system: HCT-116
SNB-78 = test system: SNB-78
NCI-H460 = test system: NCI-H460
SW-620 = test system: SW-620
SF-295 = test system: SF-295
OVCAR-8 = test system: OVCAR-8
HL-60 = test system: HL-60
HOP-18 = test system: HOP-18
XF498 = test system: XF498
U-251 = test system: U-251
SN12C = test system: SN12C
UACC-62 = test system: UACC-62
A498 = test system: A498
LOX IMVI = test system: LOX IMVI
DMS-114 = test system: DMS-114
KM-20L2 = test system: KM-20L2
CAKI-1 = test system: CAKI-1
CCRF-CEM = test system: CCRF-CEM
HT-29 = test system: HT-29
DMS-273 = test system: DMS-273
KM12 = test system: KM12
ACHN = test system: ACHN
SF-268 = test system: SF-268
OVCAR-3 = test system: OVCAR-3
COLO 205 = test system: COLO 205
OVCAR-5 = test system: OVCAR-5
Malme-3M = test system: Malme-3M
K562 = test system: K562
MCF7 = test system: MCF7
HOP-62 = test system: HOP-62
NCI/ADR-RES = test system: NCI/ADR-RES
HOP-92 = test system: HOP-92
NCI-H522 = test system: NCI-H522

SMILES: CC/C(=N/O)C(C)C(=O)CCC(=O)Nc1ccc(Cl)cc1 (stereo not drawn)
- GI50 (NCI-H23): > 100 µM (inactive)
- GI50 (SNB-19): > 100 µM (inactive)
- GI50 (NCI-H226): > 100 µM (inactive)
- GI50 (OVCAR-4): > 100 µM (inactive)
- GI50 (LXFL 529): 54.3 µM (inactive)
- GI50 (SK-OV-3): > 100 µM (inactive)
- GI50 (SNB-75): 49.9 µM (inactive)
- GI50 (A549): > 100 µM (inactive)
- GI50 (786-0): > 100 µM (inactive)
- GI50 (UACC-257): > 100 µM (inactive)
- GI50 (RXF 393): > 100 µM (inactive)
- GI50 (SK-MEL-5): > 100 µM (inactive)
- GI50 (M14): > 100 µM (inactive)
- GI50 (M19-MEL): > 100 µM (inactive)
- GI50 (TK-10): > 100 µM (inactive)
- GI50 (HCT-15): 26.9 µM
- GI50 (RPMI-8226): > 100 µM (inactive)
- GI50 (UO-31): > 100 µM (inactive)
- GI50 (DLD-1): > 100 µM (inactive)
- GI50 (SK-MEL-2): > 100 µM (inactive)
- GI50 (MOLT-4): > 100 µM (inactive)
- GI50 (EKVX): > 100 µM (inactive)
- GI50 (IGROV-1): > 100 µM (inactive)
- GI50 (SF-539): > 100 µM (inactive)
- GI50 (HCC 2998): > 100 µM (inactive)
- GI50 (SK-MEL-28): > 100 µM (inactive)
- GI50 (HCT-116): > 100 µM (inactive)
- GI50 (SNB-78): > 100 µM (inactive)
- GI50 (NCI-H460): > 100 µM (inactive)
- GI50 (SW-620): > 100 µM (inactive)
- GI50 (SF-295): > 100 µM (inactive)
- GI50 (OVCAR-8): > 100 µM (inactive)
- GI50 (HL-60): > 100 µM (inactive)
- GI50 (HOP-18): > 100 µM (inactive)
- GI50 (XF498): > 100 µM (inactive)
- GI50 (U-251): > 100 µM (inactive)
- GI50 (SN12C): > 100 µM (inactive)
- GI50 (UACC-62): 28.2 µM (inactive)
- GI50 (A498): > 100 µM (inactive)
- GI50 (LOX IMVI): > 100 µM (inactive)
- GI50 (DMS-114): > 100 µM (inactive)
- GI50 (KM-20L2): > 100 µM (inactive)
- GI50 (CAKI-1): > 100 µM (inactive)
- GI50 (CCRF-CEM): > 100 µM (inactive)
- GI50 (HT-29): > 100 µM (inactive)
- GI50 (DMS-273): > 100 µM (inactive)
- GI50 (KM12): > 100 µM (inactive)
- GI50 (ACHN): 68.4 µM (inactive)
- GI50 (SF-268): > 100 µM (inactive)
- GI50 (OVCAR-3): > 100 µM (inactive)
- GI50 (COLO 205): > 100 µM (inactive)
- GI50 (OVCAR-5): > 100 µM (inactive)
- GI50 (Malme-3M): > 100 µM (inactive)
- GI50 (K562): 57.1 µM (inactive)

SMILES: C=CCCCCCCCCC(=O)O [UNDECYLENIC ACID]
- GI50 (MCF7): 152 µM (inactive)
- GI50 (NCI-H23): 122 µM (inactive)
- GI50 (SNB-19): 150 µM (inactive)
- GI50 (NCI-H226): 155 µM (inactive)
- GI50 (HOP-62): 105 µM (inactive)
- GI50 (OVCAR-4): 132 µM (inactive)
- GI50 (SK-OV-3): 138 µM (inactive)
- GI50 (SNB-75): 168 µM (inactive)
- GI50 (A549): 103 µM (inactive)
- GI50 (UACC-257): 179 µM (inactive)
- GI50 (RXF 393): 93.1 µM (inactive)
- GI50 (NCI/ADR-RES): 172 µM (inactive)
- GI50 (SK-MEL-5): 93.8 µM (inactive)
- GI50 (M19-MEL): 149 µM (inactive)
- GI50 (HCT-15): 76.6 µM
- GI50 (RPMI-8226): 129 µM (inactive)
- GI50 (UO-31): 80.7 µM (inactive)
- GI50 (DLD-1): 76.2 µM (inactive)
- GI50 (SK-MEL-2): 85.3 µM (inactive)
- GI50 (MOLT-4): 110 µM (inactive)
- GI50 (EKVX): 116 µM (inactive)
- GI50 (IGROV-1): 113 µM (inactive)
- GI50 (SF-539): 110 µM (inactive)
- GI50 (HCC 2998): 108 µM (inactive)
- GI50 (SK-MEL-28): 135 µM (inactive)
- GI50 (HCT-116): 110 µM (inactive)
- GI50 (SNB-78): 106 µM (inactive)
- GI50 (NCI-H460): 94.2 µM (inactive)
- GI50 (SW-620): 125 µM (inactive)
- GI50 (SF-295): 109 µM (inactive)
- GI50 (OVCAR-8): 121 µM (inactive)
- GI50 (HL-60): 101 µM (inactive)
- GI50 (HOP-18): 125 µM (inactive)
- GI50 (XF498): 17.1 µM (inactive)
- GI50 (U-251): 112 µM (inactive)
- GI50 (SN12C): 149 µM (inactive)
- GI50 (UACC-62): 79.8 µM (inactive)
- GI50 (A498): 0.798 µM (active)
- GI50 (LOX IMVI): 102 µM (inactive)
- GI50 (DMS-114): 135 µM (inactive)
- GI50 (HOP-92): 83.2 µM (inactive)
- GI50 (KM-20L2): 114 µM (inactive)
- GI50 (CAKI-1): 106 µM (inactive)
- GI50 (CCRF-CEM): 128 µM (inactive)
- GI50 (HT-29): 118 µM (inactive)
- GI50 (DMS-273): 127 µM (inactive)
- GI50 (KM12): 27.7 µM (inactive)
- GI50 (SF-268): 91 µM (inactive)
- GI50 (OVCAR-3): 67 µM (inactive)
- GI50 (COLO 205): 41.3 µM (inactive)
- GI50 (OVCAR-5): 145 µM (inactive)
- GI50 (Malme-3M): 142 µM (inactive)
- GI50 (K562): 152 µM (inactive)
- GI50 (NCI-H522): 105 µM (inactive)
